Tests used:
PAPH = PAPH blockade in a specific activation pathway; assay type: cell-based, human; settings: specific activation pathway that does not involve PI
From the text: The compounds and pharmaceutical compositions of the invention include inhibitors of subspecies of LPAAT and PAPH enzymes with substrate specificity for intermediates with 1,2-diunsaturated and 1-alkyl, 2-unsaturated subspecies. One representative example of such an inhibitor (although not within the genus of inventive compounds) is PTX. […] It should be emphasized that the compounds of the invention affect that subset of PAPH and LPAAT that relates to substrates with unsaturated fatty acids other than arachidonate in the sn-2 position, not the housekeeping forms of these enzymes that serve the PI pathway.

[1] = tested on: ras-transformed NIH/3T3 cells
LPAAT = assay: formation of remodeled PA (LPAAT), in vitro; assay type: cell-based; settings: high PTX concentrations
From the text: Even in the presence of PTX, cells continue to form PA through the action of PLD, and DAG is also formed through the action of phospholipase C on PC and PI. The latter pathway are not inhibited by the inventive compounds or PTX. In PTX-treated cells, DAG derived from remodeled and PLA-generated PA is diminished (e.g., 1,2-sn-dioleoyl DAG, 1-alkyl,2-linoleoyl DAG and 1-alkyl,2-docosahexaneolyl DAG). Therefore, the inventive compounds and PTX inhibit the formation of only a certain species of PA and DAG by selectively inhibiting a specific second messenger pathway that is only activated in cells by noxious stimuli, but is not used to signal normal cellular housekeeping functions.

[2] = tested on: polymorphonuclear leukocytes; settings: in response to a stimulator of chemotaxis; U.S. Pat. No. 4,636,507; cited from earlier work
[3] = tested on: ras-transformed NIH/3T3 cells; assay: serum-stimulated generation of DAG and PA in ras-transformed NIH/3T3 cells; assay type: cell-based; settings: pretreatment of cells
From the text: For example, activating ras mutations result in increased generation of DAG on stimulation with mitogens, although the sources of DAG have differed between experimental systems. In nontransformed renal mesangial cells, IL-1β stimulation increased PLA2 and LPAAT activation, resulting in generation of sn-2 unsaturated PA and subsequent hydrolysis to DAG by phosphatidate phosphohydrolase. The ras transformation in NIH/3T3 cells upregulates serum-stimulated generation of DAG and PA. The specific species of DAG that is stimulated by serum is dioleoyl and for PA are dilinoleoyl and dioleoyl. […] The inhibition occurs either through suppressing the generation of PA de novo from lysoPA, or through inhibition of one or both arms of the Lands cycle. […] Therefore, the ras transformation mediates an upregulation of PA through indirect stimulation of PLA2 and/or LPAAT activity.

TNF = settings: human, in vivo; cited from earlier work
[4] = U.S. Pat. Nos. 4,515,795 and 4,576,947; cited from earlier work
[5] = tested on: mixed lymphocyte assay culture (PBMC); assay: percent viable cells in mixed lymphocyte assay culture after six days; assay type: cell-based, human; settings: 100 μM
Procedure: Control cells that have not been exposed to a drug are generally 78 to 85% viable under such culture conditions. For this graph, all of the compounds were present at 100 μM, which is usually well above their IC50 concentration in this assay (see FIG. 1).

murine thymocytes = assay: inhibition of murine thymocyte proliferation stimulated by ConA and IL-1α; assay type: cell-based, murine (Balb/C mice); settings: FIG. 4, 4 days
Procedure: The drugs (inventive compounds) were added to the cells at the doses indicated two hours prior to activation with ConA and IL-1α. […] Background counts were less than 200 cpm. This in vitro assay is a model for immune suppression and treatment or prevention of autoimmune diseases.
A third assay measures an ability of an inventive compound to inhibit IL-2-induced proliferation of murine thymocytes. Thymus glands are obtained from 4-6 week old mice and plated as a single cell suspension into flat bottomed wells in RPMI 1640 medium supplemented with 10% fetal calf serum. The inventive compounds are added to appropriate wells and the cells are incubated for 1-2 hrs. Concanavilin A (ConA, 0.25 μg/ml) and IL-1 (20 ng/ml) are added and the plates are incubated for 4 days. Cell proliferation is determined as above. There are also variations for this assay that follow the same basic stimulation and measure inhibition of proliferation format. […]
This example illustrates the effect of CT1514, CT1525, CT1527, CT1529, CT1577, CT1583, CT1589, CT1595, CT2519, CT1205, CT1801 and CT1908 on inhibition of murine thymocyte proliferation stimulated by Concanavalin A (ConA) and interleukin-2 (IL-2) (FIG. 4). […] The cells were harvested and incorporated tritiated thymidine was determined in a liquid scintillation counter. […]

[6] = tested on: CMV promoter activity in transformed (adenovirus) cells; assay: CMV promoter assay (gene transcription and translation, cytotoxic activity); assay type: cell-based
From the text: This example illustrates data regarding proliferative activity of various inventive compounds for inducting CMV promoter activity. The CMV promoter assay measures gene transcription and translation activity wherein any active compounds will nave cytotoxic activity to inhibit cellular protein synthesis machinery in transformed (adenovirus) cells.

human stromal cells = assay: inhibition of proliferation of human stromal cells stimulated with PDGF; assay type: cell-based
Procedure: This assay is a model for restenosis and treatment of atherosclerosis and coronary artery disease. Stromal cells were starved in serum-free media for one day and then stimulated with 50 ng/ml PDGF-BB. The drags were added at the indicated concentrations one hour prior to PDGF stimulation. Tritiated thymidine was added for one day at the time of PDGF stimulation and the cells were harvested and counted by liquid scintillation counting 24 hrs later. Background counts (i.e., starved cells) were approximately 1% of control levels.
Another assay for measuring activity of the inventive compounds involves determining PDGF (platelet derived growth factor) proliferative response using human-derived stromal cells. Human stromal cells are plated (e.g., about 2000 cells per well) in defined media (e.g., 69% McCoy's, 12.5% fetal calf serum, 12.5% horse serum, 1% antibiotics, 1% glutamine, 1% vitamin supplement, 0.8% essential amino acids, 1% sodium pyruvate, 1% sodium bicarbonate, 0.4% non-essential amino acids and 0.36% hydrocortisone). Two to three days later, the stromal cells are starved in serum-free media. Twenty four hours later, the cells are treated with a stimulating agent, such as PDGF-AA, PDGF-BB or basic FGF (fibroblast growth factor) with or without IL-1α or TNF, and tritiated thymidine. Cell proliferation is determined by liquid scintillation counting.
This assay is a model for restenosis and treatment of atherosclerosis and coronary artery disease. Stromal cells were starved in serum-free media for one day and then stimulated with 50 ng/ml PDGF-BB. The drugs were added at the indicated concentrations one hour prior to PDGF stimulation. Tritiated thymidine was added for one day at the time of PDGF stimulation and the cells were harvested and counted by liquid scintillation counting 24 hrs later. Background counts (i.e., starved cells) were approximately 1% of control levels.

murine splenocytes = assay: inhibition of murine splenocyte proliferation stimulated by anti-mu and IL-4; assay type: cell-based; settings: FIG. 5; anti-mu (10 μg/ml) and IL-4 (12.5 ng/ml)
Procedure: Drug was added to the cells at the doses indicated two hours prior to activation with anti-mu and IL-4. This in vitro assay is a model for immune suppression and treatment or prevention of autoimmune diseases. […] Background counts were less than 200 cpm.
There are a series of in vitro assays that can be used to measure immunosuppressive activity of a particular compound. These assays are a predictive model for treatment or prevention of autoimmune diseases, such as diabetes, lupus, arthritis, and the like. A first assay measures immunosuppressive activity of a drug at the B cell level. Spleens from adult mice contain immature B cells that express surface IgM. Cross-linking the surface IgM with an anti-mu antibody results in B cell proliferation. Additionally, this activation results in an increased expression of interleukin-4 receptors(IL-4R) on the surface of such cells. IL-4 acts as a growth factor for B cells and will increase the amount of proliferation induced by anti-mu. In the first assay, a mixture of anti-mu and murine IL-4 is added to murine splenocytes to cause their proliferation. Mice spleens are obtained from adult mice and a single cell suspension is prepared in RPMI 1640 medium supplemented with 10% FCS. […] Proliferation is determined on the third day with a pulse of tritiated thymidine. […]

[7] = tested on: TNF release from monocytes in whole blood; assay: ex vivo human TNF model, LPS-mediated TNF release in whole blood; assay type: cell-based; settings: FIG. 14
Procedure: This model adds LPS to whole blood (normal human volunteers) to trigger a dose-dependent synthesis and extracellular release of TNF according to Desch et al. (Lymphokine Res. 8:141, 1989). The ex vivo model examines whether LPS-mediated release of TNF from monocytes in whole blood can be block by an inventive compound.
An ex vivo human sepsis model is described in Desch et al., Lymphokine Res. 8:141, 1989 and in Ooi et al., J. Exp. Med. 174:649, 1991. Briefly, whole blood from humans is incubated with LPS (endotoxin). TNF released from cells (mostly from monocytes) is measured. The inventive compounds lower TNF levels as compared with untreated controls in this model.
This example illustrates a comparative experiment comparing CT1595, CT1529 and CT2519 in an ex vivo human TNF model described herein. This assay is a predictive model for treatment and prevention of septic shock and sepsis syndrome. This model adds LPS to whole blood (normal human volunteers) to trigger a dose-dependent synthesis and extracellular release of TNF according to Desch et al. (Lymphokine Res. 8:141, 1989). The ex vivo model examines whether LPS-mediated release of TNF from monocytes in whole blood can be block by an inventive compound.

CC(=O)CCCCn1c(=O)c2c(ncn2C)n(C)c1=O [PTX, 1-(5-oxohexyl)-3,7-dimethylxanthine]
PAPH block (PAPH): blocks PAPH
cytotoxicity associated with inhibition of ras-transformed cells [1]: not associated with significant cytotoxicity
inhibition of ras-transformed NIH/3T3 cells ([1]; vs parental cells): inhibits ras-transformed NIH/3T3 cells more than parental cells
formation of remodeled PA (LPAAT): blocks formation of remodeled PA
stimulation of chemotaxis in polymorphonuclear leukocytes [2]: stimulate chemotaxis
generation of phospholipid second messengers (DAG, PA) [3]: blocks generation of these phospholipid second messengers
TNF levels in normal volunteers (TNF): TNF levels were higher among PTX recipients

CC(O)CCCCn1c(=O)c2c(ncn2C)n(C)c1=O (centres unmarked) [M1, 1-(5-hydroxyhexyl)-3,7-dimethylxanthine]
cerebral blood flow [4]: increasing cerebral blood flow
stimulation of chemotaxis in polymorphonuclear leukocytes [2]: stimulate chemotaxis

CC(CCCCn1c(=O)c2c(ncn2C)n(C)c1=O)N=C=S (centres unmarked) [CT2519, 1-(5-isothiocyanatohexyl)-3,7-dimethylxanthine]
viability in MLR culture [5]: not cytotoxic at 100 μM
inhibition of thymocyte proliferation (murine thymocytes): most potent drugs
cytotoxicity in CMV promoter assay ([6]; in words): most cytotoxic compound tested
IC50 ([6]; read-out: IC50 (μM), CMV promoter assay): 10 µM
inhibition of human stromal cell proliferation (human stromal cells; FIG. 7, 50 ng/ml PDGF-BB, in words): strongly inhibit proliferation
IC50 (human stromal cells; Homo sapiens, read-out: IC50, inhibition of human stromal cell proliferation): < 10 µM
inhibition of splenocyte proliferation (murine splenocytes): most potent inhibitors of splenocyte proliferation in a dose-response manner
block of LPS-mediated TNF release [7]: could block TNF release in a dose-dependent fashion
